Assay results as given in ChEMBL document CHEMBL1145338, “Novel 2-aminopyrimidine carbamates as potent and orally active inhibitors of Lck: synthesis, SAR, and in vivo antiinflammatory activity” (J Med Chem, 2006).

What was measured:
[1] = target: Mitogen-activated protein kinase 14 (Homo sapiens, UniProt Q16539); test: Inhibition of p38alpha
[2] = target: Proto-oncogene tyrosine-protein kinase Src (Homo sapiens, UniProt P12931); test: Inhibition of Src
[3] = target: Tyrosine-protein kinase Lck (Homo sapiens, UniProt P06239)
Sequence of Tyrosine-protein kinase Lck (P06239 whole entry): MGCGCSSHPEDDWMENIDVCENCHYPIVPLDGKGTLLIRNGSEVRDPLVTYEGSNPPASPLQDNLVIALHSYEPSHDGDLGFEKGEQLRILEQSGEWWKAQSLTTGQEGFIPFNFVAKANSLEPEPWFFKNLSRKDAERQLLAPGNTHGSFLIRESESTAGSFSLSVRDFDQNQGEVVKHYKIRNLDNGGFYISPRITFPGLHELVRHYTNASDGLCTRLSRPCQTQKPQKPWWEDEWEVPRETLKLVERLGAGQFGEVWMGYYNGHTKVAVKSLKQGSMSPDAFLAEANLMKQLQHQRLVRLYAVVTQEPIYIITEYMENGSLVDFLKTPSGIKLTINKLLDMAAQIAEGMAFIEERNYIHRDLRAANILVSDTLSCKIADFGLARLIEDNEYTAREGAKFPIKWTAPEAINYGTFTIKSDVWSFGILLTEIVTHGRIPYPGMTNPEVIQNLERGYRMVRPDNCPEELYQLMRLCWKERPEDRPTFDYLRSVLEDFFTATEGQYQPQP
Description: Inhibition of Lck in presence of 0.5 uM ATP by HTRF kinase assay

[4] = target: Vascular endothelial growth factor receptor 2 (Homo sapiens, UniProt P35968)
Sequence of Vascular endothelial growth factor receptor 2 (P35968 whole entry): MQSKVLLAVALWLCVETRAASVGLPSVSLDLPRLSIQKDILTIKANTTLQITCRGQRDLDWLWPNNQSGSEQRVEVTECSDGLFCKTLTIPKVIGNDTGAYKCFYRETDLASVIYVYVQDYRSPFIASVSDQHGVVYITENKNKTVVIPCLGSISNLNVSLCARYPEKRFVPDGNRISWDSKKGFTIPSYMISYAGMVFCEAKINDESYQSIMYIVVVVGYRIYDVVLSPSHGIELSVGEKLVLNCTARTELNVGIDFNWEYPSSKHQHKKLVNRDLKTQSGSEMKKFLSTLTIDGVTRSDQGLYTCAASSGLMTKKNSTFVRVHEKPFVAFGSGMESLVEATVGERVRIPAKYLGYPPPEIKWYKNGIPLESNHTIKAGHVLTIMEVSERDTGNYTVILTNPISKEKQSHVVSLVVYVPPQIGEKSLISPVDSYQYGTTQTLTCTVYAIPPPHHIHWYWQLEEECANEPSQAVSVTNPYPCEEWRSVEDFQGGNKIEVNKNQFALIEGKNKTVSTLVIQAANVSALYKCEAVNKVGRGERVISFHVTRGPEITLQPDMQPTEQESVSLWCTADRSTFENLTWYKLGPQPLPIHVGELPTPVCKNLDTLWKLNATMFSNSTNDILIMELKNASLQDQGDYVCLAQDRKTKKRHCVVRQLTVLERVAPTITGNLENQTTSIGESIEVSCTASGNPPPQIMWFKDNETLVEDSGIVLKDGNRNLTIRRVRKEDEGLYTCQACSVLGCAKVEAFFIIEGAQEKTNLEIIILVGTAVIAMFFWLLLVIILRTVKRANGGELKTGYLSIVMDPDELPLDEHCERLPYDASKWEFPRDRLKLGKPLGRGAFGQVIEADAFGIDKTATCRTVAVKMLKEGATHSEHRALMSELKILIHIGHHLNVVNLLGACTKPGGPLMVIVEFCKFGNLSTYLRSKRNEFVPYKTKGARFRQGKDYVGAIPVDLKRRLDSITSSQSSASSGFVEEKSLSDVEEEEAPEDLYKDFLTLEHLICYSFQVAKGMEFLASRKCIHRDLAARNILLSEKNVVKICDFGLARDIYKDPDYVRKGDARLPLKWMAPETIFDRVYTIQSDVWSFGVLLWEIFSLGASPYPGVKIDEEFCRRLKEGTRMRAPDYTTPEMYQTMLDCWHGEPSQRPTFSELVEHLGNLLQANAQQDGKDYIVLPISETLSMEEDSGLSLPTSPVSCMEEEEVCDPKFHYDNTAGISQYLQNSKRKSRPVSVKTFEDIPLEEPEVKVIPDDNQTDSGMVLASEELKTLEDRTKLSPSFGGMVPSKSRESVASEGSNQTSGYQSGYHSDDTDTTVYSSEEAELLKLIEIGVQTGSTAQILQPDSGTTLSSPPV

T-cell [5] = test: Inhibition of anti-CD3/CD28-induced IL2 secretion in human T cells; assay type: functional, cell-based
T-cell [6] = test: Inhibition of human T cell proliferation by mixed lymphocyte reaction; assay type: functional, cell-based
[7] = Protein binding in rat plasma; assay type: ADME, cell-free; settings: read-out: PPB (converted)
[8] = target: T1, Tyrosine-protein kinase JAK3 (Homo sapiens, UniProt P52333)
T1 sequence (P52333 whole entry): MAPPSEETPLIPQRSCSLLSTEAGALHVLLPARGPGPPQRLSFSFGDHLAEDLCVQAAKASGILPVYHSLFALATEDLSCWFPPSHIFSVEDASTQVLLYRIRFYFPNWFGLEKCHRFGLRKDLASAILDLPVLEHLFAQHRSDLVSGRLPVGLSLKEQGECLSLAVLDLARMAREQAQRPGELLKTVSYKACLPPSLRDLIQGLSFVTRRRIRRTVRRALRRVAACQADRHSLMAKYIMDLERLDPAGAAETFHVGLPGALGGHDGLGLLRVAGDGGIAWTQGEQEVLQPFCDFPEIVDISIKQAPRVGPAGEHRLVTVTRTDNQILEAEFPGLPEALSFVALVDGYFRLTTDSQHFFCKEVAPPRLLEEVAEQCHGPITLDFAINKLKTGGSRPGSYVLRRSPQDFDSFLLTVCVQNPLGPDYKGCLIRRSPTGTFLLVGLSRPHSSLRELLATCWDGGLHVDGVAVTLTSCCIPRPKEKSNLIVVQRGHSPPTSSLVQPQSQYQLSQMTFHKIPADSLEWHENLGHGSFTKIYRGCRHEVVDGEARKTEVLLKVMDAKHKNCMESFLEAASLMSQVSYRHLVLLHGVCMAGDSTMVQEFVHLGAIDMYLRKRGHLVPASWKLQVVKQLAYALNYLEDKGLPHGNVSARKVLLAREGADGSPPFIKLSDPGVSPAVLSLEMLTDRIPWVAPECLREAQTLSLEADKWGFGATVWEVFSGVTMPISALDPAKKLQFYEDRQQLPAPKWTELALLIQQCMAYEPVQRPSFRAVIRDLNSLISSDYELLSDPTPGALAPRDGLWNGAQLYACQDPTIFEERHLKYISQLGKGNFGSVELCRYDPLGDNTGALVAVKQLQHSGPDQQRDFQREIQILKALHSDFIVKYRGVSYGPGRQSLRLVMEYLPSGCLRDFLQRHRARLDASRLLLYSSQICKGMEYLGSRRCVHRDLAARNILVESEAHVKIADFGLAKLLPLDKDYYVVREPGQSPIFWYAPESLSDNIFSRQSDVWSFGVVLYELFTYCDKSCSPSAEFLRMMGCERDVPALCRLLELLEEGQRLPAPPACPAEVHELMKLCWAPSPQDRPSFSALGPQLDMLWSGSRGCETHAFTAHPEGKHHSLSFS

[9] = target: Protein kinase C theta type (Homo sapiens, UniProt Q04759); test: Inhibition of PKCtheta
Sequence of Protein kinase C theta type (Q04759 whole entry): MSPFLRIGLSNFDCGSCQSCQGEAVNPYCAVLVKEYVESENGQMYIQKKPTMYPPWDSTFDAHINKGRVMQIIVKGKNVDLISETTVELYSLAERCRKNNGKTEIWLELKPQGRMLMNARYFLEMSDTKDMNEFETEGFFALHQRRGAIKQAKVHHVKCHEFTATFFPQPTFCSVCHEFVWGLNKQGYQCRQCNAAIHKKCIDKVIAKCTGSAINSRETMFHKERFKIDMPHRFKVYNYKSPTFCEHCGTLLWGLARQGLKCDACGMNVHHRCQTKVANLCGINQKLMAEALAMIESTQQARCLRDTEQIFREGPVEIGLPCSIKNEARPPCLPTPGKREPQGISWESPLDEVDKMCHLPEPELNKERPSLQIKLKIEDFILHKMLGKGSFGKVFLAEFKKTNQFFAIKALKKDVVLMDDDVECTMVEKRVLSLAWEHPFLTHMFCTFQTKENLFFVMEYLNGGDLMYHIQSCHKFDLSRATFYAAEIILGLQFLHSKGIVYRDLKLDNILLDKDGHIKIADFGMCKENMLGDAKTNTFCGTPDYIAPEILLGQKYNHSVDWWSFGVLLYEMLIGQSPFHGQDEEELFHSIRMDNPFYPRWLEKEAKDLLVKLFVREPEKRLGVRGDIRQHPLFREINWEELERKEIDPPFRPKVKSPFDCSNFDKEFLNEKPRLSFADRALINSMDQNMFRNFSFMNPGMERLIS

[10] = target: Cyclin-dependent kinase 2 (Homo sapiens, UniProt P24941); test: Inhibition of CDK2
[11] = target: Insulin-like growth factor 1 receptor (Homo sapiens, UniProt P08069)
Sequence of Insulin-like growth factor 1 receptor (P08069 31-736 limits assumed): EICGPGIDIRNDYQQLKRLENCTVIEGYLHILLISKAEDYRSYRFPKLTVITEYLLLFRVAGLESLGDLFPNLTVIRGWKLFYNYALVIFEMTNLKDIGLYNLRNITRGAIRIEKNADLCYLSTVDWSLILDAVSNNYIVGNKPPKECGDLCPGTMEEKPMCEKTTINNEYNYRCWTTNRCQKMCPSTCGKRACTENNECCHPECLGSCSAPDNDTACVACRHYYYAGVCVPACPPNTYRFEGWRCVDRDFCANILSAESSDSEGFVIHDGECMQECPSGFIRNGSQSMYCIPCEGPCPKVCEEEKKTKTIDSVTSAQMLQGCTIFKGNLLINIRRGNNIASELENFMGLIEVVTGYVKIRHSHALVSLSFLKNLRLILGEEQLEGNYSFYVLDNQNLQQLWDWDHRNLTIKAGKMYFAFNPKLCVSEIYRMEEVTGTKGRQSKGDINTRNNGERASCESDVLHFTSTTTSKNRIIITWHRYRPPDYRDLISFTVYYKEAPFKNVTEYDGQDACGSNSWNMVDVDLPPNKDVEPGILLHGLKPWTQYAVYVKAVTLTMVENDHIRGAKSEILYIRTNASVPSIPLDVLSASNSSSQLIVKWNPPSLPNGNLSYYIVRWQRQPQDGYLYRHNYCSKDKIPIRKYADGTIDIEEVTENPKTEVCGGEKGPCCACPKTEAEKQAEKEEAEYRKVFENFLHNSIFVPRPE
Sequence of Insulin-like growth factor 1 receptor (P08069 741-1367 limits assumed): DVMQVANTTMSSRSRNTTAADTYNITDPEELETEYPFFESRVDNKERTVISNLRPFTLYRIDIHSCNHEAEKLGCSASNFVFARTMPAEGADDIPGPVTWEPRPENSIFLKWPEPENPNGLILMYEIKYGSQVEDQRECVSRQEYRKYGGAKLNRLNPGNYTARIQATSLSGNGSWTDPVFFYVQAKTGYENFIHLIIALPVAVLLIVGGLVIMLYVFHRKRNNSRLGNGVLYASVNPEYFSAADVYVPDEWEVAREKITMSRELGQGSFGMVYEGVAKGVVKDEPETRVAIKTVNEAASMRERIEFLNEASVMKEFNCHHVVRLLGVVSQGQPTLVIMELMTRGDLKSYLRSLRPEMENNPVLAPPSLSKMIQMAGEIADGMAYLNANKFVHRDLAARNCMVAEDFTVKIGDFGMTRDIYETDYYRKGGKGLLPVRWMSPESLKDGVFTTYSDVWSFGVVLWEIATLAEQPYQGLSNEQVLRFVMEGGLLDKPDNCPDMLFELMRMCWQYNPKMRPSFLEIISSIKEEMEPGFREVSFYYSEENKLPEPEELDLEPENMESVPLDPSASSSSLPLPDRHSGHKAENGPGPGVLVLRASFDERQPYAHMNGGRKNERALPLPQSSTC

[12] = target: Tyrosine-protein kinase JAK2 (Homo sapiens, UniProt O60674)
[13] = Clearance in Sprague-Dawley rat at 1 mg/kg, iv; assay type: ADME, organism-based; set-up: dose 1 mg/kg, route intravenous; settings: in vivo
T-cell [14] = test: Inhibition of anti-CD3/CD28-induced T cell proliferation; assay type: functional, cell-based; settings: Homo sapiens
Mus musculus [15] = test: Inhibition of anti-CD3-induced IL2 production in BALB/c mouse at 10 mg/kg, po; assay type: functional
Mus musculus [16] = test: Inhibition of anti-CD3-induced IL2 production in BALB/c mouse at 100 mg/kg, po; assay type: functional
[17] = AUC (0-infinity) in Sprague-Dawley rat at 5 mg/kg, po; assay type: ADME, organism-based; set-up: time infinity, dose 5 mg/kg, route oral; settings: plasma
[18] = target: Tyrosine-protein kinase SYK (Homo sapiens, UniProt P43405); test: Inhibition of Syk
[19] = AUC (0-infinity) in Sprague-Dawley rat at 1 mg/kg, iv; assay type: ADME, organism-based; set-up: time infinity, dose 1 mg/kg, route intravenous; settings: plasma
T-cell [20] = test: Inhibition of anti-CD3/CD28-induced IL2 secretion in T cells stimulated with phorbol myristic acid and calcium ionophore; assay type: functional, cell-based; settings: Homo sapiens
[21] = Bioavailability in Sprague-Dawley rat at 5 mg/kg, po; assay type: ADME, organism-based; settings: in vivo
T-cell [22] = test: Inhibition of T cell receptor zeta chain phosphorylation; assay type: functional, cell-based; settings: Homo sapiens
[23] = Tmax in Sprague-Dawley rat at 5 mg/kg, po; assay type: ADME, organism-based; set-up: dose 5 mg/kg, route oral; settings: in vivo
Mus musculus [24] = test: Inhibition of anti-CD3-induced IL2 production in BALB/c mouse at 30 mg/kg, po; assay type: functional
[25] = target: Tyrosine-protein kinase BTK (Homo sapiens, UniProt Q06187)
Homo sapiens = organism: Homo sapiens; test: Inhibition of anti-CD3/CD28-induced IL2 secretion in human whole blood T cell; assay type: functional
[26] = Half life in Sprague-Dawley rat at 1 mg/kg, iv; assay type: ADME, organism-based; set-up: dose 1 mg/kg, route intravenous; settings: in vivo
[27] = target: Mitogen-activated protein kinase 10 (Homo sapiens, UniProt P53779)
[28] = Cmax in Sprague-Dawley rat at 5 mg/kg, po; assay type: ADME, organism-based; set-up: dose 5 mg/kg, route oral; settings: in vivo
Jurkat = test: Antiproliferative activity against Jurkat cells; assay type: functional, cell-based; settings: Homo sapiens
[29] = Protein binding in human plasma; assay type: ADME, cell-free; settings: read-out: PPB (converted)
[30] = Volume of distribution in Sprague-Dawley rat at 1 mg/kg, iv; assay type: ADME, organism-based; set-up: dose 1 mg/kg, route intravenous; settings: in vivo, read-out: Vss

Sequence of Proto-oncogene tyrosine-protein kinase Src (P12931 2-536 limits assumed): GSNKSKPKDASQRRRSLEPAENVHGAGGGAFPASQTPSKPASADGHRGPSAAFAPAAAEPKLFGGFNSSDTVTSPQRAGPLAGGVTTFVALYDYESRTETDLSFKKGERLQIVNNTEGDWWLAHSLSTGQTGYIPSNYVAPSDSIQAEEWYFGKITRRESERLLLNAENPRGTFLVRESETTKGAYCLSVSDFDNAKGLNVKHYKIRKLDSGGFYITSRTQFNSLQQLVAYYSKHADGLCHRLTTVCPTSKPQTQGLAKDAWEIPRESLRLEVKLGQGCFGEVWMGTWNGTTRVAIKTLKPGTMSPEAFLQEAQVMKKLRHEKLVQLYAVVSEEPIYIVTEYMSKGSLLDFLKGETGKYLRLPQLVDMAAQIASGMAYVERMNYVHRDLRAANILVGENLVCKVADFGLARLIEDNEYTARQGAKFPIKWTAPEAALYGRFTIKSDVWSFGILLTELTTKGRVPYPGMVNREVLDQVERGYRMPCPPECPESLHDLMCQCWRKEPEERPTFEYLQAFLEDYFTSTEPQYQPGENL
Sequence of Mitogen-activated protein kinase 14 (Q16539 whole entry): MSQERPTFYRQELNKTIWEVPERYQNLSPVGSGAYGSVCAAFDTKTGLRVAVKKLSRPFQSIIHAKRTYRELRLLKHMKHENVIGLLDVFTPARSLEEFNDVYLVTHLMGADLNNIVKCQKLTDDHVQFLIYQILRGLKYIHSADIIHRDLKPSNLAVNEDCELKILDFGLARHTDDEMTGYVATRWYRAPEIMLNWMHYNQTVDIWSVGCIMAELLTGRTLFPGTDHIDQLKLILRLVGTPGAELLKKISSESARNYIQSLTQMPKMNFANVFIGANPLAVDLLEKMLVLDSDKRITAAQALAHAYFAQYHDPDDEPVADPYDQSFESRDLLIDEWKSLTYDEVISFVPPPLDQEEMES

Cc1cccc(C)c1OC(=O)N(c1ccc(-c2ccccc2)cc1)c1ccnc(Nc2ccc(N3CCN(C)CC3)cc2)n1
IC50 [1]: 1800 nM
IC50 [2]: 98 nM
IC50 [3]: 13 nM
IC50 [4]: 590 nM

COc1ccccc1N(C(=O)Oc1c(C)cccc1C)c1ccnc(Nc2ccc(N3CCN(C)CC3)cc2)n1
IC50 [1]: 420 nM
IC50 [2]: 4 nM
IC50 [3]: 1 nM
IC50 [4]: 190 nM

COc1ccc(N(C(=O)Oc2c(C)cccc2C)c2ccnc(Nc3ccc(N4CCN(C)CC4)c(F)c3)n2)c(OC)c1
IC50 [1]: 1000 nM
IC50 [2]: 2 nM
IC50 [3]: 1 nM
IC50 (T-cell [5]): 200 nM
IC50 [4]: 260 nM

COc1ccc(N(C(=O)Oc2c(C)cccc2C)c2ccnc(Nc3cc(OC)c(OCCN4CCN(C)CC4)c(OC)c3)n2)c(OC)c1
IC50 [1]: 180 nM
IC50 [2]: 1 nM
IC50 [3]: 1 nM
IC50 (T-cell [5]): 290 nM
IC50 [4]: 230 nM

COc1ccc(N(C(=O)Oc2c(C)cccc2C)c2ccnc(Nc3ccc(OCCN(C)C)cc3)n2)c(OC)c1
IC50 [1]: 2100 nM
IC50 [2]: 4 nM
IC50 [3]: 1 nM
IC50 (T-cell [5]): 270 nM
IC50 [4]: 220 nM

COc1ccc(N(C(=O)Oc2c(C)cccc2C)c2ccnc(Nc3ccc(N4CCN(C)CC4)cc3)n2)c(OC)c1
IC50 [1]: 1300 nM
IC50 [2]: 6 nM
IC50 [3]: 2 nM
IC50 (T-cell [5]): 1900 nM
IC50 [4]: 640 nM

COc1ccc(N(C(=O)Oc2c(C)cccc2C)c2ccnc(Nc3ccc(OCCCN(C)C)cc3)n2)c(OC)c1
IC50 [1]: 2100 nM
IC50 [2]: 4 nM
IC50 [3]: 1 nM
IC50 (T-cell [5]): 230 nM
IC50 [4]: 230 nM

COc1ccc(N(C(=O)Oc2c(C)cccc2C)c2ccnc(Nc3ccc(OCCCN4CCN(C)CC4)c(F)c3)n2)c(OC)c1
IC50 [1]: 1300 nM
IC50 [2]: 5 nM
IC50 [3]: 1 nM
IC50 (T-cell [5]): 510 nM
IC50 [4]: 590 nM

COc1ccc(N(C(=O)Oc2c(C)cccc2C)c2ccnc(Nc3ccc(OCCCN4CCCCC4)c(F)c3)n2)c(OC)c1
IC50 [1]: 6800 nM
IC50 [2]: 12 nM
IC50 [3]: 2 nM
IC50 (T-cell [5]): 860 nM
IC50 [4]: 620 nM

Cc1cccc(C)c1OC(=O)N(c1cccc(-c2ccccc2)c1)c1ccnc(Nc2ccc(N3CCN(C)CC3)cc2)n1
IC50 [1]: 8000 nM
IC50 [2]: 500 nM
IC50 [3]: 49 nM
IC50 [4]: 1900 nM

COc1ccc(N(C(=O)Oc2c(C)cccc2C)c2ccnc(Nc3ccc(N4CCN(C)CC4)c(OC)c3)n2)c(OC)c1
IC50 [1]: 440 nM
IC50 [2]: 2 nM
IC50 [3]: 1 nM
IC50 (T-cell [5]): 140 nM
IC50 [4]: 140 nM

COc1ccc(N(C(=O)Oc2c(C)cccc2C)c2ccnc(Nc3ccc(N4CCN(C)CC4)cc3)n2)cc1
IC50 [1]: 320 nM
IC50 [2]: 3 nM
IC50 [3]: 12 nM
IC50 [4]: 420 nM

Cc1cccc(C)c1OC(=O)N(c1ccnc(Nc2ccc(N3CCN(C)CC3)cc2)n1)c1ccc(F)cc1OC(C)C
IC50 [1]: 1200 nM
IC50 [2]: 13 nM
IC50 [3]: 1 nM
IC50 [4]: 4800 nM

COc1ccc(N(C(=O)Oc2c(C)cccc2C)c2ccnc(Nc3cc(OC)c(OCCN4CCOCC4)c(OC)c3)n2)c(OC)c1
IC50 [1]: 1200 nM
IC50 [2]: 2 nM
IC50 [3]: 1 nM
IC50 (T-cell [5]): 410 nM
IC50 [4]: 170 nM

Cc1cccc(C)c1OC(=O)N(c1ccc2ccccc2c1)c1ccnc(Nc2ccc(N3CCN(C)CC3)cc2)n1
IC50 [1]: 740 nM
IC50 [2]: 14 nM
IC50 [3]: 10 nM
IC50 [4]: 130 nM

COc1ccc(N(C(=O)Oc2c(C)cccc2C)c2ccnc(Nc3ccc(OCCCN4CCN(C)CC4)c(OC)c3)n2)c(OC)c1
IC50 [1]: 2300 nM
IC50 [2]: 2 nM
IC50 [3]: 1 nM
IC50 (T-cell [5]): 100 nM
IC50 [4]: 210 nM

COc1ccc(N(C(=O)Oc2c(C)cccc2C)c2ccnc(Nc3cc(OC)c(N4CCN(C)CC4)c(OC)c3)n2)c(OC)c1
IC50 [1]: 430 nM
IC50 [2]: 1 nM
IC50 [3]: 1 nM
IC50 [4]: 170 nM
IC50 (T-cell [6]): 590 nM

COc1ccc(N(C(=O)Oc2c(C)cccc2C)c2ccnc(Nc3cc(OC)c(OCCCN4CCN(C)CC4)c(OC)c3)n2)c(OC)c1
IC50 [1]: 530 nM
fraction unbound [7]: 0.016
IC50 [8]: 1200 nM
IC50 [2]: 1 nM
IC50 [9]: > 5000 nM
IC50 [10]: > 40000 nM
IC50 [11]: > 25000 nM
IC50 [12]: 240 nM
clearance [13]: 30.5 mL/min/kg
IC50 (T-cell [14]): 490 nM
inhibition in vivo at 10 mg/kg (Mus musculus [15]): 11%
inhibition in vivo at 100 mg/kg (Mus musculus [16]): 60%
AUC(0-inf) [17]: 175 ng·h/mL
IC50 [18]: 200 nM
AUC(0-inf) [19]: 568 ng·h/mL
IC50 (T-cell [5]): 61 nM
IC50 (T-cell [20]): 1800 nM
bioavailability [21]: 6%
IC50 (T-cell [22]): 780 nM
Tmax [23]: 4 h
inhibition in vivo at 30 mg/kg (Mus musculus [24]): 21%
IC50 [25]: 100 nM
IC50 (Homo sapiens): 3000 nM
half-life [26]: 4.6 h
IC50 [27]: > 5000 nM
Cmax [28]: 22 ng/mL
IC50 (Jurkat): 1700 nM
fraction unbound [29]: 0.013
Vd [30]: 11.3 L/kg

Cc1cccc(C)c1OC(=O)N(c1ccccc1)c1ccnc(Nc2ccc(N3CCN(C)CC3)cc2)n1
IC50 [1]: 160 nM
IC50 [2]: 10 nM
IC50 [3]: 14 nM
IC50 [4]: 190 nM
